From ChEMBL document CHEMBL5727981, “ASK1 inhibitor and preparation method and use thereof” (2020)

Biological target: T1, Mitogen-activated protein kinase kinase kinase 5 (Homo sapiens, UniProt Q99683)
T1 sequence (Q99683 whole entry): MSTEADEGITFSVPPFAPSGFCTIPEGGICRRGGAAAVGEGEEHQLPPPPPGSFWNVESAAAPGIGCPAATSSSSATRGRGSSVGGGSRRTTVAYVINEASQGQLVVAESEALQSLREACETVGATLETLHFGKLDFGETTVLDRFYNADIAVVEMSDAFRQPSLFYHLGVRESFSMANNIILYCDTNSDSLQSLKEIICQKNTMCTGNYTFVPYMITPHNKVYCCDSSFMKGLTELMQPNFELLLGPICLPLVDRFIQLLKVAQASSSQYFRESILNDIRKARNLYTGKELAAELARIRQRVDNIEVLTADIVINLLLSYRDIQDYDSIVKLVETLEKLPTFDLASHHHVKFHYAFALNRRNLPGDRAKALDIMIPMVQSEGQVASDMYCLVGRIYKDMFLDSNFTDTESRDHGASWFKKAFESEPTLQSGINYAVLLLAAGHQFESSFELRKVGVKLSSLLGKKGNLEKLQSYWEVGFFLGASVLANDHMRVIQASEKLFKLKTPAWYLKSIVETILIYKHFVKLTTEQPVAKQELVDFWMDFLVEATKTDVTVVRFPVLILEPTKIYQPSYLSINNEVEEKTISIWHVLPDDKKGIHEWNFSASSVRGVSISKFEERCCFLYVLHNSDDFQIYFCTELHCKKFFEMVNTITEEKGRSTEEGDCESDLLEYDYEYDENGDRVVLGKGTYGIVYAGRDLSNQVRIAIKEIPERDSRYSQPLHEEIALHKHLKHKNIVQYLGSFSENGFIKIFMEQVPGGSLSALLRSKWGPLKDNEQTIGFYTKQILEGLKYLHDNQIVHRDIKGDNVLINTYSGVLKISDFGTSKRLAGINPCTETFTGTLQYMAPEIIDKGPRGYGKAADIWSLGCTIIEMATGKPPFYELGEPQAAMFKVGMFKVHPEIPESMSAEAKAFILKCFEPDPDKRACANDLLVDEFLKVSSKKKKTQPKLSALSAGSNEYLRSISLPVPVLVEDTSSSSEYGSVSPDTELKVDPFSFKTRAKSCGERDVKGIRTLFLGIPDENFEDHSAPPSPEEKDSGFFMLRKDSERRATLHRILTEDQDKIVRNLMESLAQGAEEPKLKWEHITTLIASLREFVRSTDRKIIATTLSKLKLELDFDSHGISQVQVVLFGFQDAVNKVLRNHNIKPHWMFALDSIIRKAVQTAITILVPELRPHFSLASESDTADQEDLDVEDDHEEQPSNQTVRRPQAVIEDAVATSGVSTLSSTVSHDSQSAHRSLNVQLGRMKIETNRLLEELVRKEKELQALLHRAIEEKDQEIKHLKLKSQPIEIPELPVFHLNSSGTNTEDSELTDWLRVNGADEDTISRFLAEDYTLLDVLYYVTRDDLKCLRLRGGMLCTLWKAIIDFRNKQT
Assay: In Vitro Enzyme Activity: Reagents:Base Reaction Buffer: 20 mM Hepes (pH 7.5), 10 mM MgCl2, 1 mM EGTA, 0.02% Brij35, 0.02 mg/ml BSA, 0.1 mM Na3VO4, 2 mM DTT, 1% DMSOCompound Treatment:The test compound was formulated into a 10 mM stock solution in DMSO, which was diluted into 10 concentrations in 3-fold degression, and placed in a 384-well plate (Cyclic Olefin Copolymer LDV Echo®).Kinase Name: ASK1/MAP3K5 (Invitrogen, Carlsbad, Calif.)Type: Recombinant Human Full Length Protein, GST-taggedFinal concentration of the enzyme: 20 nMSubstrate: Myelin basic protein, MBP (Active Motif, Carlsbad, Calif.)Final concentration of the substrate: 20 μMExperimental Operations:1. The substrate was dissolved in a freshly prepared base reaction buffer.2. A desired coenzyme was added to the above substrate solution.3. The kinase was added to the substrate solution and mixed slowly.4. The solution of the test compound in DMSO was added to the kinase reaction solution and incubated at room temperature for 20 minutes.5. 33P-ATP (specific activity of 10 μCi/μl) was added to the reaction solution to initiate the reaction.6. Incubated at room temperature for 2 hours.7. A small portion of the reactants was placed onto a P-81 ion exchange filter paper.8. The filter paper was washed three times with 0.75% phosphate buffer to wash off the unbound phosphate, and then the filter paper was dried.9. The radioactivity remaining on the filter paper was determined.10. Kinase activity data was expressed as the ratio of the kinase activity remaining in the test sample to the kinase activity in the vehicle (DMSO).

IC50	Compound
< 50 nM	CCc1cn(-c2cc3c(=O)n(-c4cccc(-c5nncn5C(C)C)n4)cnc3cc2C)cn1
< 50 nM	CC(C)c1cc2ncn(-c3cccc(-c4nncn4C(C)C)n3)c(=O)c2cc1-n1cnc(C2CC2)c1
< 50 nM	CC(C)n1cnnc1-c1cccc(N2CCc3cc(Cl)c(-n4cnc(C5CC5)c4)cc3C2=O)n1
